According to patent US20070197573A1, “Compositions and methods in the treatment of bone metabolic disorders” (priority 2005, published 2007):

What was measured:
delta receptors = delta receptors (Homo sapiens, UniProt P41143); settings: in vitro; cited from earlier work
μ opioid receptor = μ opioid receptor (Homo sapiens, UniProt P35372); settings: cited from earlier work
[1] = cited from earlier work
human osteoblasts = settings: in vitro treatment; cited from earlier work
IL-1β = IL-1β level within the bone after sustained morphine infusion; assay type: in vivo, mice; settings: sarcoma-induced
Text: (§1) The peripheral opioid antagonists according to the invention provide a conjunctive therapy for managing bone metabolism while opiates are in use. Specific data describing the metabolic effects of opiates on bone metabolism are provided in the examples.

sarcoma cells = test: Tumor growth in vitro; assay type: cell-based
Text: as §1

[2] = tested on: sarcoma-induced bone loss; test: Murine bone cancer model (sarcoma cells injected into femur), radiographic bone loss, fracture and pain under sustained morphine infusion; assay type: in vivo, mice
osteoclasts = test: Osteoclast count by TRAP staining in metaphysis of distal femur; assay type: in vivo, mice
Text: Previous studies have shown that osteolytic cancers, such as the sarcoma cell line used in these studies, upregulate osteoclasts within the bone. To determine whether the enhanced morphine-induced bone loss is mediated through further upregulation of osteoclasts, osteoclasts were stained and counted within the metaphysis of the distal head of the femur using tartrate resistant acid phosphatase (TRAP) staining.

[3] = drug-dependent mice; cited from earlier work
[4] = sustained morphine administration

Chain of μ opioid receptor (P35372 whole entry, species assumed): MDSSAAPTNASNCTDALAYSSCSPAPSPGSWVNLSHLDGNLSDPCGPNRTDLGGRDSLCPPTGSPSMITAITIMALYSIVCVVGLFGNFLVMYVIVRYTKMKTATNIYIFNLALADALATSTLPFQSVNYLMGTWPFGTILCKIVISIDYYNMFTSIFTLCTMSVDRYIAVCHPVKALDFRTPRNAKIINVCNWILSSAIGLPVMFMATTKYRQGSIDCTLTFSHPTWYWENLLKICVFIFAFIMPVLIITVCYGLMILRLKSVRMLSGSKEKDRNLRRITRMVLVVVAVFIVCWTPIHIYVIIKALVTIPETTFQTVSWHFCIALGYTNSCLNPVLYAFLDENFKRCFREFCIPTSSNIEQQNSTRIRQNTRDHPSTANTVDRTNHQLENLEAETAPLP
Chain of delta receptors (P41143 whole entry): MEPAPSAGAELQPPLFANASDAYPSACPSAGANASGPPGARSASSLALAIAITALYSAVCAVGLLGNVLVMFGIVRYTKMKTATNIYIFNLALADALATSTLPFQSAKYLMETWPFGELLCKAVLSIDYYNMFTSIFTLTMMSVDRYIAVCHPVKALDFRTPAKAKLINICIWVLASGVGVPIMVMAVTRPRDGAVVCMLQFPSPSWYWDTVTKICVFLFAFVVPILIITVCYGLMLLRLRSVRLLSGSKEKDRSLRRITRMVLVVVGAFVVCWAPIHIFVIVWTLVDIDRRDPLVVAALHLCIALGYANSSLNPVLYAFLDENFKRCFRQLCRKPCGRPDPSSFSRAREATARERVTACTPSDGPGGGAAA

## O=C1C(=Cc2ccccc2)C[C@@]2(O)[C@H]3Cc4ccc(O)c5c4[C@@]2(CCN3CC2CC2)[C@H]1O5 [BNTX, 7-benzylidenenaltrexone]
Delta receptors
  type of activity at the delta receptor: inverse agonist
μ opioid receptor
  type of activity at the mu receptor: inverse agonist

## O=C(O)Cc1ccccc1Nc1c(Cl)cccc1Cl [Diclofenac]
[1]
  therapeutic concentration in serum: approximately 1.5 micrograms/ml
Human osteoblasts
  concentration giving a significant decrease of cell proliferation: 6 micrograms/ml

## COc1cccc(C2(O)CCCCC2CN(C)C)c1 (centres unmarked) [Tramadol]
[1]
  therapeutic concentration in serum: 0.25 micrograms/ml
Human osteoblasts
  concentration giving a significant decrease of cell proliferation: greater than 20 micrograms/ml

## CN1CC[C@]23c4c5ccc(O)c4O[C@H]2[C@@H](O)C=C[C@H]3[C@H]1C5 [morphine]
IL-1β
  IL-1β within the bone: upregulated
Sarcoma cells
  tumor growth in vitro: did not alter
[2]; 6 days after sarcoma injection
  sarcoma-induced bone loss (radiograph rating) vs saline infusion: no difference between morphine or saline treated mice
[2]; 10 days and 12 days after sarcoma injection into the femur
  incidence of sarcoma-induced fracture vs saline infusion: doubled
[2]; 12 days after femoral sarcoma injection, sustained morphine infusion
  sarcoma-induced bone loss (radiograph rating) vs saline infusion: increased sarcoma-induced bone loss
[2]; in vivo
  tumor burden in vivo: did not alter
[2]; [4]
  sarcoma-induced pain: enhances sarcoma-induced pain
  time to fracture: accelerated time to fracture
osteoclasts; control animals (no sarcoma)
  osteoclast TRAP staining vs saline: no difference in osteoclast staining
osteoclasts; sarcoma treated animals, sustained morphine infusion
  osteoclast TRAP staining vs saline infusion: increased sarcoma-induced upregulation of osteoclasts

## CTAP
[3]
  withdrawal elicited, compared with naloxone: significantly less withdrawal than naloxone
